According to patent US20200392161A1, “SHP2 PHOSPHATASE INHIBITORS AND METHODS OF USE THEREOF” (Relay Therapeutics, Inc., priority 2018, published 2020):
Counter-ions that a name gives are not always drawn.

The molecules below were run against T1, SHP2 (Homo sapiens, UniProt Q06124) (assay: SHP2 allosteric inhibition assay (DiFMUP prompt fluorescence)). Details: Table 3; 0.25 nM SHP2, 0.5 μM IRS1_pY1172(dPEG8)pY1222 peptide, DiFMUP 100 μM.
T1 sequence (Q06124 1-593): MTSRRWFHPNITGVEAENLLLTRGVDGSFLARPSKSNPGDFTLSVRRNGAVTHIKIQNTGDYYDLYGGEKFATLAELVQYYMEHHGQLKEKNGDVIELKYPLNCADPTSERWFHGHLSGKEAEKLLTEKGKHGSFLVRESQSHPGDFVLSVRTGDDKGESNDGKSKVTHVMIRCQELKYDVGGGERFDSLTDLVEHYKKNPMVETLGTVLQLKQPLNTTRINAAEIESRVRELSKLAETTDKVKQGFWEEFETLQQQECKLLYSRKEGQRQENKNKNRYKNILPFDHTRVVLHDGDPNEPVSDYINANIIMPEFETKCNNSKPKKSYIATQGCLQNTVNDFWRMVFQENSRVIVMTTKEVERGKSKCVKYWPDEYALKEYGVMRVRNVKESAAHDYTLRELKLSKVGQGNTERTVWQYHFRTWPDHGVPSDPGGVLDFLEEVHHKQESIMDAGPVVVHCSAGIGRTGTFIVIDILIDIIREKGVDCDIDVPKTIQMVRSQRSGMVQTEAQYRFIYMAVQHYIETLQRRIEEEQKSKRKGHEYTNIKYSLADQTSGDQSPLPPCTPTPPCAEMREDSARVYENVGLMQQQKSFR
Assay type: biochemical
Description: SHP2 Allosteric Inhibition Assay.
SHP2 is allosterically activated through binding of bis-tyrosyl-phosphorylated peptides to its Src Homology 2 (SH2) domains. The latter activation step leads to the release of the auto-inhibitory interface of SHP2, which in turn renders the SHP2 protein tyrosine phosphatase (PTP) active and available for substrate recognition and reaction catalysis. The catalytic activity of SHP2 was monitored using the surrogate substrate DiFMUP in a prompt fluorescence assay format.
The inhibitor dose response curves were analyzed using normalized IC50 regression curve fitting with control based normalization.

**Q.** How did the IC50 turn out when Cc1ccc(-c2nc(C)c(C(=O)N3CCC(CN)C3)s2)c(C)c1 (stereo not shown) [Compound C47] was run?
**A.** > 1000 µM

**Q.** With NC1CCCN(C(=O)c2cnc(-c3ccc(C(F)(F)F)cc3)s2)CC1 (stereo not shown) [Compound C48] as the molecule, how does the IC50 read?
**A.** > 1000 µM

**Q.** NCC1CCN(C(=O)c2csc(-c3ccccc3F)n2)C1 (stereo not shown) [Compound C49] was tested. Which IC50 did it give?
**A.** > 1000 µM

Same assay, conditions: Table 4; 0.25 nM SHP2, 0.5 μM IRS1_pY1172(dPEG8)pY1222 peptide, DiFMUP 100 μM

**Q.** How did the IC50 turn out when CC1(N)CCN(c2ncnc3c(-c4cccc(Cl)c4Cl)csc23)CC1 [Compound D1, 1-(7-(2,3-dichlorophenyl)thieno[3,2-d]pyrimidin-4-yl)-4-methylpiperidin-4-amine formate] was run?
**A.** 1 to 10 µM

**Q.** How did the IC50 turn out when CC1(CN)CCN(c2ncnc3c(-c4cccc(Cl)c4Cl)csc23)CC1 [Compound D2, (1-(7-(2,3-dichlorophenyl)thieno[3,2-d]pyrimidin-4-yl)-4-methylpiperidin-4-yl)methanamine] was run?
**A.** 1 to 10 µM

Same assay, conditions: Table 5; 0.25 nM SHP2, 0.5 μM IRS1_pY1172(dPEG8)pY1222 peptide, DiFMUP 100 μM

**Q.** How did the IC50 turn out when CC1(N)CCN(c2cnn3c(-c4ccccc4Cl)coc23)CC1 [Compound E1, 1-(3-(2-chlorophenyl)pyrazolo[5,1-b]oxazol-7-yl)-4-methylpiperidin-4-amine formate] was run?
**A.** 50 to 100 µM

**Q.** For CC1(CN)CCN(c2cnn3c(-c4ccccc4Cl)coc23)C1 (stereo not shown) [Compound E2, (1-(3-(2-chlorophenyl)pyrazolo[5,1-b]oxazol-7-yl)-3-methylpyrrolidin-3-yl)methanamine], which IC50 is on record?
**A.** < 50 µM

**Q.** With Cc1cc2occ(-c3ccccc3Cl)n2n1 [Compound E3, 3-(2-chlorophenyl)-6-methylpyrazolo[5,1-b]oxazole] as the molecule, how does the IC50 read?
**A.** > 100 µM

**Q.** With Clc1ccccc1-c1coc2ccnn12 [Compound E4, 3-(2-chlorophenyl)pyrazolo[5,1-b]oxazole] as the molecule, how does the IC50 read?
**A.** > 100 µM

Same assay, conditions: Table 6; 0.25 nM SHP2, 0.5 μM IRS1_pY1172(dPEG8)pY1222 peptide, DiFMUP 100 μM

**Q.** With Cn1c(N2CCC(C)(CN)CC2)nc2[nH]nc(N3CCCc4ncccc43)c2c1=O [Compound F1, 6-(4-(aminomethyl)-4-methylpiperidin-1-yl)-3-(3,4-dihydro-1,5-naphthyridin-1(2H)-yl)-5-methyl-1H-pyrazolo[3,4-d]pyrimidin-4(5H)-one, hydrochloride] as the molecule, how does the IC50 read?
**A.** < 1 µM

**Q.** Which IC50 does the source give for CC1(N)CCN(c2cc(=O)nc3[nH]nc(-c4cccc(Cl)c4F)n23)CC1 [Compound F2, 5-(4-amino-4-methylpiperidin-1-yl)-3-(3-chloro-2-fluorophenyl)-[1,2,4]triazolo[4,3-a]pyrimidin-7(1H)-one hydrochloride] here?
**A.** > 20 µM

**Q.** CC1(N)CCN(c2cc(=O)n3c(-c4cccc(Cl)c4F)n[nH]c3n2)CC1 [Compound F3, 7-(4-amino-4-methylpiperidin-1-yl)-3-(3-chloro-2-fluorophenyl)-[1,2,4]triazolo[4,3-a]pyrimidin-5(1H)-one hydrochloride] was tested. Which IC50 did it give?
**A.** > 20 µM

**Q.** Cn1c(N2CCC(C)(CN)CC2)nc2[nH]nc(N3CCc4ccccc43)c2c1=O [Compound F4, 6-(4-(aminomethyl)-4-methylpiperidin-1-yl)-3-(indolin-1-yl)-5-methyl-1H-pyrazolo[3,4-d]pyrimidin-4(5H)-one] was tested. Which IC50 did it give?
**A.** < 1 µM

**Q.** For O=c1c2[nH]nc(-c3cccc(Cl)c3Cl)c2ncn1C1CCNCC1 [Compound F5, 3-(2,3-dichlorophenyl)-6-(piperidin-4-yl)-1H-pyrazolo[4,3-d]pyrimidin-7(6H)-one], which IC50 is on record?
**A.** 1 to 20 µM

**Q.** Which IC50 does the source give for Cn1c(N2CCC(C)(CN)CC2)nc2[nH]nc(Sc3cccc(Cl)c3Cl)c2c1=O [Compound F7, 6-(4-(aminomethyl)-4-methylpiperidin-1-yl)-3-((2,3-dichlorophenyl)thio)-5-methyl-1H-pyrazolo[3,4-d]pyrimidin-4(5H)-one hydrochloride] here?
**A.** < 1 µM

**Q.** Which IC50 does the source give for Cn1c(N2CCC(C)(CN)CC2)nc2[nH]nc(Sc3cccc(Cl)c3)c2c1=O [Compound F8, 6-(4-(aminomethyl)-4-methylpiperidin-1-yl)-3-((3-chlorophenyl)thio)-5-methyl-1H-pyrazolo[3,4-d]pyrimidin-4(5H)-one] here?
**A.** < 1 µM

**Q.** For COc1nc(N2CCC(C)(N)CC2)nc2[nH]nc(-c3cccc(Cl)c3Cl)c12 [Compound F9, 1-[3-(2,3-dichlorophenyl)-4-methoxy-1H-pyrazolo[3,4-d]pyrimidin-6-yl]-4-methyl-piperidin-4-amine], which IC50 is on record?
**A.** < 1 µM

**Q.** For C[C@@H]1OCC2(CCN(c3nc4[nH]nc(N5CCc6ncccc65)c4c(=O)n3C)CC2)[C@@H]1N [Compound F11, 6-[(3S,4S)-4-amino-3-methyl-2-oxa-8-azaspiro[4.5]decan-8-yl]-5-methyl-3-{1H,2H,3H-pyrrolo[3,2-b]pyridin-1-yl}-1H,4H,5H-pyrazolo[3,4-d]pyrimidin-4-one formate], which IC50 is on record?
**A.** 1 to 20 µM

**Q.** Which IC50 does the source give for C[C@@H]1OCC2(CCN(c3nc4[nH]nc(N5CCc6ccccc6C5)c4c(=O)n3C)CC2)[C@@H]1N [Compound F12, 6-[(3S,4S)-4-amino-3-methyl-2-oxa-8-azaspiro[4.5]decan-8-yl]-5-methyl-3-(1,2,3,4-tetrahydroisoquinolin-2-yl)-1H,4H,5H-pyrazolo[3,4-d]pyrimidin-4-one] here?
**A.** < 1 µM
